From patent publication US11466020B2, “Compounds and compositions for inhibition and elimination of Zika infection and uses for same” (Cornell University, priority 2017, dated 2022)
Counter-ions that a name gives are not always drawn.

Legend:
[1] = test system: ZIKV (MR766 strain); assay: qRT-PCR of total ZIKV vRNA in supernatant of hNPC cultures; type: cell-based, Zika virus; settings: 72 h after infection
Experimental: (A) Scheme of high content chemical screen. (B) Chemical structure of hit compounds. (C) Inhibitory curve and IC50 of HH or AQ on hNPCs (n=6). (D-H) Immunocytochemistry analysis (D), the quantification of the infection rate (E), the quantification of proliferation rate (F), the quantification of cell apoptosis rate (G) and the normalized cell viability (H) of hNPCs at 72 h after ZIKV (MR 766 strain) infection with or without drug treatment. Scale bars, 100 μm. The ZIKV infection rate is defined as the percentage of ZIKV E^+ cells. The proliferation rate is defined as the percentages of Ki67^+ cells. The cell apoptosis rate was defined as the percentage of cleaved-Caspase 3/CAS3^+ cells. The normalized cell viability was calculated by dividing the total cell number of each condition by the total cell number under mock infection conditions. (n=6). […] (K) Quantification of ZIKV infectious particles produced by ZIKV-infected hNPCs with or without compound treatment by the Vero cell reinfection assay. […] (M and N) Immunocytochemistry analysis (M) and quantification of the infection rate (N) of hNPCs at 72 h after ZIKV (PRVABC59 strain) infection with or without drug treatment (n=6). Scale bars, 100 μm. p values were calculated by one-way repeated measures ANOVA with a Bonferroni test for multiple comparisons. *p<0.05, **p<0.01 and ***p<0.001. […]

[2] = test system: hNPCs; assay: hNPC viability, proliferation, apoptosis and identity; type: cell-based, human; settings: for ZIKV induced growth arrest or apoptosis of hNPCs: 72 h after ZIKV (MR766) infection, vs DMSO
Experimental: (A) Scheme of high content chemical screen. (B) Chemical structure of hit compounds. (C) Inhibitory curve and IC50 of HH or AQ on hNPCs (n=6). (D-H) Immunocytochemistry analysis (D), the quantification of the infection rate (E), the quantification of proliferation rate (F), the quantification of cell apoptosis rate (G) and the normalized cell viability (H) of hNPCs at 72 h after ZIKV (MR 766 strain) infection with or without drug treatment. Scale bars, 100 μm. The ZIKV infection rate is defined as the percentage of ZIKV E^+ cells. The proliferation rate is defined as the percentages of Ki67^+ cells. The cell apoptosis rate was defined as the percentage of cleaved-Caspase 3/CAS3^+ cells. The normalized cell viability was calculated by dividing the total cell number of each condition by the total cell number under mock infection conditions. (n=6). (I) qRT-PCR analysis to monitor the total ZIKV vRNA in the supernatant of hNPC cultures at 72 h after ZIKV infection with or without drug treatment. (J) Vero cell reinfection assay to monitor the ZIKV infectious particles in the supernatant of hNPC cultures with or without drug treatment. To perform the Vero cell reinfection assay, hNPCs at 72 h after ZIKV infection were washed three times and changed to drug free medium for an additional 24 h. Vero cells were infected with the supernatant collected from hNPCs for 2 h and changed to virus free medium for an additional 24 h. Vero cells were stained with antibody against ZIKV E and DAPI. Scale bars, 200 μm. (n=3). (K) Quantification of ZIKV infectious particles produced by ZIKV-infected hNPCs with or without compound treatment by the Vero cell reinfection assay. (L) Heatmap analysis of mock-infected hNPCs treated with DMSO (mock); mock infected hNPCs treated with 25 μM HH (HH), mock-infected hNPCs treated with 15 μM AQ (AQ), ZIKV (MR766 strain, MOI=0.125) infected hNPCs treated with DMSO (ZIKV+DMSO); ZIKV-infected hNPCs treated with 25 μM HH (ZIKV+HH), and ZIKV-infected hNPCs treated with 15 μM AQ (ZIKV+AQ). […] (M and N) Immunocytochemistry analysis (M) and quantification of the infection rate (N) of hNPCs at 72 h after ZIKV (PRVABC59 strain) infection with or without drug treatment (n=6). Scale bars, 100 μm. p values were calculated by one-way repeated measures ANOVA with a Bonferroni test for multiple comparisons. *p<0.05, **p<0.01 and ***p<0.001.
(A) Scheme to evaluate the elimination of ZIKV. At day 0, hNPCs were infected with ZIKV for 2 h. After removal of ZIKV infection medium, hNPCs were treated with drug candidates. At day 3, the culture medium was changed to fresh medium without compounds. The cells were maintained in drug-free culture until day 6 and used for immunohistochemistry and qRT-PCR. (B and C) Inhibitory curve and IC50 of HH calculated based on the infection rate (B) and normalized cell viability (C) (n=6). (D and E) Immunocytochemistry analysis (D) and the quantification of infection rate, cell apoptosis rate, and total cell number (E) of hNPCs on day 3 and day 6. Cells was fixed and stained with cleaved Caspase-3 (CAS3), ZIKV E and DAPI. Scale bars, 100 μm. (F) qRT-PCR analysis to monitor the total ZIKV vRNA in the supernatant of hNPC cultures on day 6. Scale bars, 200 μm. (n=3). (G) Vero cell reinfection assay to monitor the infective ZIKV vRNA in the supernatant of hNPC cultures at day 6 after ZIKV infection. Scale bars, 200 μm. (n=3). (H) Quantification of ZIKV infectious particles produced by ZIKV-infected hNPCs at day 6 by the Vero cell reinfection assay. (I) hNPCs with or without ZIKV infection treated with HH maintain hNPC marker expression and differentiation capacity. hNPCs with or without ZIKV MR766 infection were treated with 25 μM HH or DMSO for 3 days and then stained for SOX2, NESTIN and with DAPI. hNPCs with or without ZIKV infection and treated with HH or DMSO for 3 days were differentiated to cortical neurons. The cortical neurons were then fixed and stained for MAP2, TUJ1 and with DAPI. Scale bars, 100 μm. (n=3). […]

Compound	production of ZIKV viral RNA (vRNA), qRT-PCR [1]	ZIKV induced growth arrest or apoptosis of hNPCs [2]	cell death rate and total cell number ([2]; ZIKV infected hNPCs, day 6)	ZIKV-induced loss of cell viability ([2]; dose-dependent, compound applied 2 h post infection)	expression of neural progenitor markers SOX2 and NESTIN and differentiation capacity ([2]; hNPCs with or without ZIKV infection treated for 3 days)	cytotoxicity to hNPCs ([2]; highest dose of 100 μM)
CN1CCC2=C[C@H](O)[C@H]3OC(=O)c4cc5c(cc4[C@H]3[C@@H]21)OCO5 [HH, hippeastrine hydrobromide]	significantly suppressed	blocked ZIKV induced growth arrest or apoptosis	comparable to control mock infection conditions	successfully rescued	maintained the expression of neural progenitor markers	no obvious cytotoxicity
CCN(CC)Cc1cc(Nc2ccnc3cc(Cl)ccc23)ccc1O [AQ, amodiaquine dihydrochloride dihydrate]	significantly suppressed	blocked ZIKV induced growth arrest or apoptosis				
